Where two headings read alike, the source gives them in different places.
Experiments:
Type in all cases: in vivo
[1] = tested on: Alopecurus myosuroides (ALOMY); assay: Glasshouse assay for herbicidal activity, pre-/post-emergence (percentage phytotoxicity); conditions: Alopecurus myosuroides, Rate 250 g/ha, 100%=total damage, 0%=no damage
Experimental: (§1) Seeds of a variety of monocotyledonous and dicotyledonous test plants are sown in standard soil in pots. The plants are cultivated for one day (for pre-emergence) or for about 12 days (for post-emergence) under controlled conditions in a glasshouse (warm climate species at 24/18° C., cool climate species at 20/16° C., both at day/night; 16 hours light; 65% humidity). The test plants are then grown on, in a glasshouse (greenhouse) under controlled conditions (warm climate species at 24/18° C., cool climate species at 20/16° C., both at day/night; 16 hours light; 65% humidity) and are watered twice daily. 15 days after application of the test herbicide (15DAA) (for post-emergence), and 20 days after application of the test herbicide (20DAA) (for pre-emergence), the test plants are evaluated visually, and an assessed percentage phytotoxicity score is given for each herbicidal application on each plant species (with 100%=total damage to plant; 0%=no damage to plant). The plant species tested are as follows: Alopecurus myosuroides (ALOMY), Avena fatua (AVEFA), Lolium perenne (LOLPE), Echinochloa crus-galli (ECHCG).

Avena fatua (AVEFA) = assay: as above; conditions: Avena fatua, Rate 250 g/ha, 100%=total damage, 0%=no damage
Experimental: as §1

[2] = tested on: Echinochloa crus-galli (ECHCG); assay: as above; conditions: Echinochloa crus-galli, Rate 250 g/ha, 100%=total damage, 0%=no damage
Experimental: as §1

Lolium perenne (LOLPE) = assay: as above; conditions: Lolium perenne, Rate 250 g/ha, 100%=total damage, 0%=no damage
Experimental: as §1

wheat = assay: Post-emergence herbicidal activity against cereal crops (wheat) +/- safener, crop selectivity; conditions: 100%=total damage to plant, 0%=no damage; for Post-emergence herbicidal activity against wheat (percentage phytotoxicity), +CQC: 250 g/ha, plus safener cloquintocet-mexyl (CQC) applied at 50 g/ha; for percent phytotoxicity (crop damage) to wheat at 250 g/ha: Triticum aestivum, 360 h, without safener, read-out: Post-emergence herbicidal activity against wheat (percentage phytotoxicity), Wheat - CQC
Experimental: as §1, with “plant).” for “plant). The plant species tested are as follows: Alopecurus myosuroides (ALOMY), Avena fatua (AVEFA), Lolium perenne (LOLPE), Echinochloa crus-galli (ECHCG).”

[3] = 360 h, post-emergence, visual assessment 15 DAA, read-out: Post-emergence herbicidal activity (percentage phytotoxicity), ALOMY POST
[4] = 480 h, pre-emergence, visual assessment 20 DAA, read-out: Pre-emergence herbicidal activity (percentage phytotoxicity), ALOMY PRE
[5] = post-emergence, 360 h, post-emergence, visual assessment 15 DAA, read-out: Post-emergence herbicidal activity (percentage phytotoxicity), AVEFA POST
[6] = pre-emergence, 480 h, pre-emergence, visual assessment 20 DAA, read-out: Pre-emergence herbicidal activity (percentage phytotoxicity), AVEFA PRE
[7] = post-emergence, 360 h, post-emergence, visual assessment 15 DAA, read-out: Post-emergence herbicidal activity (percentage phytotoxicity), ECHCG POST
[8] = pre-emergence, 480 h, pre-emergence, visual assessment 20 DAA, read-out: Pre-emergence herbicidal activity (percentage phytotoxicity), ECHCG PRE
[9] = post-emergence, 360 h, post-emergence, visual assessment 15 DAA, read-out: Post-emergence herbicidal activity (percentage phytotoxicity), LOLPE POST
[10] = pre-emergence, 480 h, pre-emergence, visual assessment 20 DAA, read-out: Pre-emergence herbicidal activity (percentage phytotoxicity), LOLPE PRE

Structure (SMILES) | pest or weed control at 250 g/ha [1, 3] | pest or weed control at 250 g/ha [1, 4] | pest or weed control at 250 g/ha (Avena fatua (AVEFA); [5]) | pest or weed control at 250 g/ha (Avena fatua (AVEFA); [6]) | pest or weed control at 250 g/ha [2, 7] | pest or weed control at 250 g/ha [2, 8] | pest or weed control at 250 g/ha (Lolium perenne (LOLPE); [9]) | pest or weed control at 250 g/ha (Lolium perenne (LOLPE); [10]) | Post-emergence herbicidal activity against wheat (percentage phytotoxicity), +CQC (wheat) | percent phytotoxicity (crop damage) to wheat at 250 g/ha (wheat)
Cc1cc(C)c(C2C(=O)CC(CCNS(=O)(=O)c3ccc(F)c(Cl)c3)C2=O)c(C)c1 (stereo not shown) [Compound A75] | 60% | 70% | 80% | 60% | 30% | 70% | 70% | 80% | 0% | 0%
Cc1cc(C)c(C2C(=O)CC(CCNC(=O)Nc3cc(C(F)(F)F)ccn3)C2=O)c(C)c1.Cl (stereo not shown) [Compound A2, 1-[2-[2,4-dioxo-3-(2,4,6-trimethylphenyl)cyclopentyl]ethyl]-3-[4-(trifluoromethyl)-2-pyridyl]urea] | 80% | 70% | 100% | 80% | 100% | 90% | 100% | 80% | 80% | 80%
CONC(=O)NCCC1CC(=O)C(c2c(C)cc(C)cc2C)C1=O (stereo not shown) [Compound A18] | 80% | 60% | 80% | 50% | 90% | 60% | 80% | 70% | 0% | 60%
Cc1cc(C)c(C2C(=O)CC(CCNC(=O)NC(=O)c3ccc(Cl)cc3F)C2=O)c(C)c1 (stereo not shown) [Compound A59] | 90% | 70% | 90% | 30% | 90% | 100% | 100% | 80% | 80% | 90%
Cc1cc(C)c(C2C(=O)CC(CCNC(=O)N(C)C(C)(C)C)C2=O)c(C)c1 (stereo not shown) [Compound A14] | 80% | 90% | 90% | 90% | 100% | 100% | 100% | 100% | 30% | 60%
Cc1cc(-n2cc(Cl)cn2)cc(C)c1C1C(=O)CC(CCNC(=O)Nc2ccc(F)cn2)C1=O (stereo not shown) [Compound A28] | 90% | 70% | 100% | 70% | 90% | 90% | 80% | 70% | 20% | 80%
Cc1cc(C)c(C2C(=O)CC(CCNC(=O)NC(=O)c3cc(C(F)(F)F)ccc3Cl)C2=O)c(C)c1 (stereo not shown) [Compound A62] | 90% | 70% | 80% | 30% | 80% | 80% | 80% | 40% | 70% | 80%
